Measured values from patent US20240166690A1, “MULTI-TARGET CY[…] FOR OPIOID/NEUROPEPTIDE FF RECEPTORS, AND PREPARATION THEREFOR AND APPLICATION THEREOF” (SHANGHAI TIANCI LIFE SCIENCE DEVELOPMENT CO., LTD., priority 2021, published 2024).
Bridge positions count the residues as written; N and C are the ends. Square brackets hold non-standard residues; d marks the D form. Peptide text beside a SMILES is read from it. NMeF = CN[C@@H](Cc1ccccc1)C(=O)O

System: Kunming male mice
Assay: Photothermal tail flick experiment, subcutaneous injection
Type: in vivo
Conditions: photothermal tail flick
Experimental: Two administration methods were used: peripheral subcutaneous administration and oral administration. Subsequently, the analgesic activity of the drug was studied using an acute pain model of photothermal tail flick in mice.
Subcutaneous administration on the back was chosen for subcutaneous administration (s.c.). A sterile 1 mL syringe was used and the drug with the volume of 0.1 mL/10 g was injected for administration. The back skin was grasped with the right hand, the needle was tilted in, and the drug was injected subcutaneously into the mouse's back. After the needle was inserted, shook it left and right, and observe to confirm that the needle had indeed entered the subcutaneous area to prevent the needle from puncturing the skin and leaking the drug.
The photothermal tail flick experiment is based on the experimental method summarized by D'Amour and Smith to optimize the experimental parameters. The experiment selected Kunming male mice with body weigh 21±2 g, and ambient temperature controlled at 22±2° C. The experimental mice were allowed to drink water freely and were moved from the breeding room to the experimental area for adaptation for 30 minutes before starting the experiment. Then the mice were grab with the right hand and the tail hang freely. Then the mice's tail were placed on a radiation light source, 2-3 mm away from the mice tail. The intensity of radiation heat was adjusted to the tail flick time of mice being 3-5 s, which is the basic pain threshold of photothermal tail flick. The irradiation time of the mice tail should not exceed 10 s to prevent scalding of the mice tail, which was the maximum latency for photothermal tail flick. After administration, time points of 10, 20, 30, 45, 60, 90, 120, 180, 240, 300, 360, and 420 minutes were selected to measure the tail flick latency of mice after administration.
The analgesic effect of drugs was generally evaluated using the maximum analgesic effect MPE (%), MPE (%)=100×[(pain threshold after administration−basic pain threshold)/(10 seconds−basic pain threshold)]. 50% effective dose (ED50) refers to the corresponding drug dose that causes a 50% effect. ED50 and 95% confidence interval were calculated using MPE (%) and the drug concentration that achieves the maximum analgesic effect MPE (%) by the statistical software GraphPad Prism 5.0. The difference in analgesic effects was statistically analyzed using one-way ANOVA (Dunnett test), *P<0.05, **P<0.01, and ***P<0.001 indicated significance of the difference between the group with only drug injected and the saline group.

For CN1C(=O)CNC(=O)[C@H](NC(=O)[C@@H](N)Cc2ccc(O)cc2)CCCCNC(=O)C[C@@H](C(=O)N2CCC[C@H]2C(=O)N[C@@H](CCC(N)=O)C(=O)N[C@@H](CCCNC(=N)N)C(=O)N[C@@H](Cc2ccccc2)C(N)=O)NC(=O)[C@@H]1Cc1ccccc1 [Compound 1, Tyr-c[D-Lys-Gly-NMe-Phe-Asp]-Pro-Gln-Arg-Phe-NH2] (H-Y[dK]G[NMeF]DPQRF-NH2; lactam 2-5), the “ED50 value (95% confidence interval), analgesic activity” value was 0.32 (0.27 to 0.38) μg/kg.
